According to US20250214977A1, “STAT6 INHIBITORS AND USES THEREOF” (Kymera Therapeutics, Inc., priority 2024, published 2025):

System: Phosphorylation of STAT6 in human A549 cells
Test: Phosphorylated STAT6 (pSTAT6) flow cytometry assay in human A549 cells
Assay type: cell-based
Conditions: read-out: STAT6 IL4 pSTAT6 assay in A549 cells: Average IC50
Excerpt: Example 3. Phosphorylated STAT6 (pSTAT6) Flow Cytometry Assay in Human A549 Cells
Phosphorylation of STAT6 in human A549 cells was quantitatively measured using flow cytometry technology.

Structure (SMILES)	IC50 [nM]
COc1ccccc1-c1cc(C2=CCCN(C(=O)CCn3ccnn3)C2)c(F)c2[nH]c(C(=O)N3CCN(c4c(O)ccc5ccccc45)CC3)cc12 [Example I-965]	100 to 1000
COc1ccccc1-c1cc(C2=CCCN(C(=O)CCn3ccnn3)C2)c(F)c2[nH]c(C(=O)N3CCN(c4nccc5[nH]ccc45)CC3)cc12 [Example I-966]	< 100
CCn1c(N2CCN(C(=O)c3cc4c(-c5ccccc5OC)cc(C5=CCCN(C(=O)CCn6ccnn6)C5)c(F)c4[nH]3)CC2)cc2ccccc21 [Example I-967]	100 to 1000
COc1ccccc1-c1cc(C2=CCCN(C(=O)CCn3ccnn3)C2)c(F)c2[nH]c(C(=O)N3CCN(c4ccccc4C(F)(F)F)CC3)cc12 [Example I-968]	100 to 1000
CCc1ccccc1N1CCN(C(=O)c2cc3c(-c4ccccc4OC)cc(C4=CCCN(C(=O)CCn5ccnn5)C4)c(F)c3[nH]2)CC1 [Example I-969]	100 to 1000
COc1ccccc1-c1cc(C2=CCCN(C(=O)CCn3ccnn3)C2)c(F)c2[nH]c(C(=O)N3CCN(c4ccc(=O)n(C)c4)CC3)cc12 [Example I-971]	< 100
COc1ccccc1-c1cc(C2=CCCN(C(=O)CCn3ccnn3)C2)c(F)c2[nH]c(C(=O)N3CCN(c4c(F)ccc5cnccc45)CC3)cc12 [Example I-972]	< 100
COc1cccnc1N1CCN(C(=O)c2cc3c(-c4cccc(F)c4OC)cc(C4=CCCN(C(=O)CCn5ccnn5)C4)c(F)c3[nH]2)C(C)C1 (stereo not drawn) [Example I-973]	100 to 1000
COc1ccccc1-c1cc(C2=CCCN(C(=O)CCn3ccnn3)C2)c(F)c2[nH]c(C(=O)N3CCc4ncccc43)cc12 [Example I-974]	< 100
COc1ccccc1-c1cc(C2=CCCN(C(=O)CCn3ccnn3)C2)c(F)c2[nH]c(C(=O)N3Cc4ccc(C#N)cc4C3)cc12 [Example I-975]	< 100
COc1ccccc1-c1cc(C2=CCCN(C(=O)CCn3ccnn3)C2)c(F)c2[nH]c(C(=O)N(C)Cc3ccc4c(c3)OCO4)cc12 [Example I-976]	< 100
COc1ccccc1-c1cc(C2=CCCN(C(=O)CCn3ccnn3)C2)c(F)c2[nH]c(C(=O)N3CCc4cc(C(F)(F)F)ccc4C3)cc12 [Example I-977]	< 100
COc1ccccc1-c1cc(C2=CCCN(C(=O)CCn3ccnn3)C2)c(F)c2[nH]c(C(=O)N(C)C3Cc4ccccc4C3)cc12 [Example I-978]	100 to 1000
COc1ccc(NC(=O)c2cc3c(-c4ccccc4OC)cc(C4=CCCN(C(=O)CCn5ccnn5)C4)c(F)c3[nH]2)cn1 [Example I-979]	100 to 1000
CCS(=O)(=O)N1CCN(C(=O)c2cc3c(-c4ccccc4OC)cc(C4=CCCN(C(=O)CCn5ccnn5)C4)c(F)c3[nH]2)CC1 [Example I-980]	< 100
COc1ccccc1-c1cc(C2=CCCN(C(=O)CCn3ccnn3)C2)c(F)c2[nH]c(C(=O)N3CCC(n4c(=O)[nH]c5ncccc54)CC3)cc12 [Example I-981]	100 to 1000
COc1ccccc1-c1cc(C2=CCCN(C(=O)CCn3ccnn3)C2)c(F)c2[nH]c(C(=O)N3Cc4cccc(F)c4C3)cc12 [Example I-982]	> 100000
COc1ccccc1-c1cc(C2=CCCN(C(=O)CCn3ccnn3)C2)c(F)c2[nH]c(C(=O)N3CCNC(=O)CC3)cc12 [Example I-983]	< 100
COc1ccccc1-c1cc(C2=CCCN(C(=O)CCn3ccnn3)C2)c(F)c2[nH]c(C(=O)N3CCC(OC4CCC4)CC3)cc12 [Example I-984]	< 100

Structure (SMILES)	IC50 [nM]
COc1ccccc1-c1cc(C2=CCCN(C(=O)CCn3ccnn3)C2)c(F)c2[nH]c(C(=O)N3CCOCC3)cc12 [Example I-985]	< 100
COc1ccccc1-c1cc(C2=CCCN(C(=O)CCn3ccnn3)C2)c(F)c2[nH]c(C(=O)N(C)CCc3ccccn3)cc12 [Example I-986]	< 100
COc1ccccc1-c1cc(C2=CCCN(C(=O)CCn3ccnn3)C2)c(F)c2[nH]c(C(=O)N3CC4CCN(Cc5ccccc5)C4C3)cc12 (stereo not drawn) [Example I-987]	1000 to 10000
COC(=O)N1CCN(C(=O)c2cc3c(-c4ccccc4OC)cc(C4=CCCN(C(=O)CCn5ccnn5)C4)c(F)c3[nH]2)CC1 [Example I-988]	< 100
COc1ccccc1-c1cc(C2=CCCN(C(=O)CCn3ccnn3)C2)c(F)c2[nH]c(C(=O)N3CCN(S(C)(=O)=O)CC3)cc12 [Example I-989]	< 100
CNc1ccc(-c2cc(C3=CCCN(C(=O)CCn4ccnn4)C3)c(F)c3[nH]c(C(=O)N4CCN(C)CC4)cc23)c(OC)c1 [Example I-990]	< 100
COc1ccccc1C(=O)N1CCN(C(=O)c2cc3c(-c4ccccc4OC)cc(C4=CCCN(C(=O)CCn5ccnn5)C4)c(F)c3[nH]2)CC1 [Example I-991]	< 100
COc1ccccc1-c1cc(C2=CCCN(C(=O)CCn3ccnn3)C2)c(F)c2[nH]c(C(=O)N3CC(Oc4cccnc4)C3)cc12 [Example I-992]	< 100
COc1ccccc1-c1cc(C2=CCCN(C(=O)CCn3ccnn3)C2)c(F)c2[nH]c(C(=O)Nc3ccnn3C)cc12 [Example I-993]	100 to 1000
COc1ccccc1-c1cc(C2=CCCN(C(=O)CCn3ccnn3)C2)c(F)c2[nH]c(C(=O)N3CCC(=O)N(C)CC3)cc12 [Example I-994]	< 100
COc1ccccc1-c1cc(C2=CCCN(C(=O)CCn3ccnn3)C2)c(F)c2[nH]c(C(=O)N3CCN(c4ncccn4)C[C@@H]3C)cc12 [Example I-995]	< 100
COc1ccccc1-c1cc(C2=CCCN(C(=O)CCn3ccnn3)C2)c(F)c2[nH]c(C(=O)N3CCNC(=O)[C@@H]3C)cc12 [Example I-996]	< 100
CCCN1CCN(C(=O)c2cc3c(-c4ccccc4OC)cc(C4=CCCN(C(=O)CCn5ccnn5)C4)c(F)c3[nH]2)C[C@@H]1C [Example I-997]	< 100
COC(=O)C1CN(C(=O)c2cc3c(-c4ccccc4OC)cc(C4=CCCN(C(=O)CCn5ccnn5)C4)c(F)c3[nH]2)CC1C (stereo not drawn) [Example I-998]	< 100
COc1ccccc1-c1cc(C2=CCCN(C(=O)CCn3ccnn3)C2)c(F)c2[nH]c(C(=O)N3CC(Oc4ccc(F)cc4)C3)cc12 [Example I-999]	< 100
COc1ccccc1-c1cc(C2=CCCN(C(=O)CCn3ccnn3)C2)c(F)c2[nH]c(C(=O)N3CCC4(CC3)OCCO4)cc12 [Example I-1000]	< 100
C#CCOC1CCN(C(=O)c2cc3c(-c4ccccc4OC)cc(C4=CCCN(C(=O)CCn5ccnn5)C4)c(F)c3[nH]2)CC1 [Example I-1001]	< 100
COc1ccccc1-c1cc(C2=CCCN(C(=O)CCn3ccnn3)C2)c(F)c2[nH]c(C(=O)N3CCC(c4cccnc4C)CC3)cc12 [Example I-1002]	< 100
COc1ccccc1-c1cc(C2=CCCN(C(=O)CCn3ccnn3)C2)c(F)c2[nH]c(C(=O)N3CCN(c4ccc[nH]c4=O)CC3)cc12 [Example I-1003]	< 100

Structure (SMILES)	IC50 [nM]
COC(=O)c1cc(N2CCN(C(=O)c3cc4c(-c5ccccc5OC)cc(C5=CCCN(C(=O)CCn6ccnn6)C5)c(F)c4[nH]3)CC2)cn1C [Example I-1004]	< 100
COc1ccccc1-c1cc(C2=CCCN(C(=O)CCn3ccnn3)C2)c(F)c2[nH]c(C(=O)N3CCN(c4cnn(C)c4C#N)CC3)cc12 [Example I-1005]	< 100
COc1ccccc1-c1cc(C2=CCCN(C(=O)CCn3ccnn3)C2)c(F)c2[nH]c(C(=O)N3CCC(C)(O)C3)cc12 (stereo not drawn) [Example I-1006]	100 to 1000
COc1ccccc1-c1cc(C2=CCCN(C(=O)CCn3ccnn3)C2)c(F)c2[nH]c(C(=O)N3CCO[C@H](C)C3)cc12 [Example I-1007]	< 100
COc1ccccc1-c1cc(C2=CCCN(C(=O)CCn3ccnn3)C2)c(F)c2[nH]c(C(=O)N3CCN(c4ccccn4)C(=O)C3)cc12 [Example I-1008]	< 100
COc1ccccc1-c1cc(C2=CCCN(C(=O)CCn3ccnn3)C2)c(F)c2[nH]c(C(=O)N3CCN(c4ccc(C#N)cc4F)CC3)cc12 [Example I-1009]	< 100
COc1ccccc1-c1cc(C2=CCCN(C(=O)CCn3ccnn3)C2)c(F)c2[nH]c(C(=O)N3CCc4ncncc4C3)cc12 [Example I-1010]	< 100
COc1ccccc1-c1cc(C2=CCCN(C(=O)CCn3ccnn3)C2)c(F)c2[nH]c(C(=O)N3CCC4CC43)cc12 (stereo not drawn) [Example I-1011]	< 100
COc1ccccc1-c1cc(C2=CCCN(C(=O)CCn3ccnn3)C2)c(F)c2[nH]c(C(=O)N3CCc4ccc(N)cc4C3)cc12 [Example I-1012]	< 100
COc1ccccc1-c1cc(C2=CCCN(C(=O)CCn3ccnn3)C2)c(F)c2[nH]c(C(=O)N3CCN(c4cnn5c4CCC5)CC3)cc12 [Example I-1013]	< 100
COc1ccccc1-c1cc(C2=CCCN(C(=O)CCn3ccnn3)C2)c(F)c2[nH]c(C(=O)N3CCN(CC4(C#N)CC4)CC3)cc12 [Example I-1014]	< 100
COc1ccccc1-c1cc(C2=CCCN(C(=O)CCn3ccnn3)C2)c(F)c2[nH]c(C(=O)N3CCN(c4cnn5ccncc45)CC3)cc12 [Example I-1015]	< 100
COc1ccccc1-c1cc(C2=CCCN(C(=O)CCn3ccnn3)C2)c(F)c2[nH]c(C(=O)N3CCN(c4cn(C)c5ncncc45)CC3)cc12 [Example I-1016]	< 100
COc1ccccc1-c1cc(C2=CCCN(C(=O)CCn3ccnn3)C2)c(F)c2[nH]c(C(=O)N3CCN(c4cnc5ncccn45)CC3)cc12 [Example I-1017]	< 100
COc1ccccc1-c1cc(C2=CCCN(C(=O)CCn3ccnn3)C2)c(F)c2[nH]c(C(=O)N3CCN(c4c(C)ccn5nccc45)CC3)cc12 [Example I-1019]	< 100
COc1ccccc1-c1cc(C2=CCCN(C(=O)CCn3ccnn3)C2)c(F)c2[nH]c(C(=O)N3CCN(c4cccc(=O)n4C)CC3)cc12 [Example I-1020]	< 100
COc1ccccc1-c1cc(C2=CCCN(C(=O)CCn3ccnn3)C2)c(F)c2[nH]c(C(=O)N3CCN(c4cccn(C)c4=O)CC3)cc12 [Example I-1021]	< 100
COc1ccccc1-c1cc(C2=CCCN(C(=O)CCn3ccnn3)C2)c(F)c2[nH]c(C(=O)N3CCN(c4ccc(=O)[nH]c4C)CC3)cc12 [Example I-1022]	< 100
COc1ccccc1-c1cc(C2=CCCN(C(=O)CCn3ccnn3)C2)c(F)c2[nH]c(C(=O)N3CCN(c4cc(C)c(=O)n(C)c4)CC3)cc12 [Example I-1023]	< 100
